Experimental findings from patent US10765631B2, “Liposomes for modulating Wiskott-Aldrich syndrome protein” (BAR-ILAN UNIVERSITY, priority 2013, dated 2020) are described below.

Data set [1] concerns the target T1, WASp (Homo sapiens, UniProt P42768).
T1 construct: expressed in transfected cells; host or cells: 293T cells, calcium-phosphate transfection
T1 sequence (P42768 1-502): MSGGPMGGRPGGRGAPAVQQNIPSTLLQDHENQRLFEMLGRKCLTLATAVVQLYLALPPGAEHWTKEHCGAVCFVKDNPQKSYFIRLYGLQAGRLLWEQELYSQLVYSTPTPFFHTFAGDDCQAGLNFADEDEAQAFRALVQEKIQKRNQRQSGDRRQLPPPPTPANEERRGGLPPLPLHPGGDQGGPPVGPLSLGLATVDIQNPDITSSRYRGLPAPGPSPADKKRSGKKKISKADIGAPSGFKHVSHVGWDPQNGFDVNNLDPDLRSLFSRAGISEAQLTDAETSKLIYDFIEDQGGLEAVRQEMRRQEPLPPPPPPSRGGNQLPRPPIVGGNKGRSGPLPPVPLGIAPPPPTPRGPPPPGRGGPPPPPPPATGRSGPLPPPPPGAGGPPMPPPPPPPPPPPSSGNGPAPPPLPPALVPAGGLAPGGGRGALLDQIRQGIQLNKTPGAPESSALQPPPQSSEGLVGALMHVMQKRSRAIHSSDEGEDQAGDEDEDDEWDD
The experiment in a line: YFP-WASp expression in 293T cells treated with compounds, densitometric Western blot analysis. The conditions noted are these: for effect on WASp expression in cells: 293T cells transfected with YFP-WASp; for Relative expression: YFP-WASp expression in transfected 293T cells relative to DMSO solvent control, compound 10-80 μM, overnight. It is filed as cell-based. On the procedure: Compounds were obtained and from ChemBridge Corporation. San Diego, Calif., USA. Of the compounds obtained, 14 were considered potential agents for modulating WASp expression, by their potential to bind to WASp. The 14 compounds were tested in 293T cells using the following procedure.
The compounds were individually dissolved in DMSO to make a stock solution of 20 millimolar (mM) and kept stored at −20° C. 293T cells were prepared to mid log phase, ˜60-80% confluence, and were transfected with 15 μg of yellow-fluorescent protein, YFP-WASp plasmid (6023), using a Calcium-phosphate transfection protocol. Cells were collected and counted. 1-2×10^6 cells per sample in 6-well supplemented with 2-4 ml complete (10% FCS) DMEM medium (0.5×10^6 cells/ml). Cells were plated in 6 wells (0.5×10^6 cells/ml×Number of samples) and pre-incubate at 37°, 5% CO2 for at least 4 h (for the cells to adhere. 1 ml of the medium in which the cells were grown is taken, and added to the compound (10-80 μM). The medium, with the compound, was added back to the cells in the plate, drop-wise. Cells were incubated overnight at 37° C., 5% CO2. Densitometric analysis of YFP-WASp expression in the cells treated with the compounds, using Western blot analysis. The compounds with a relative 1.5-fold change (either increase or decrease) of expression relative cells which were exposed to DMSO solvent control, are listed in table 2 below. Table 2 lists the compounds' modulation of WASp expression levels as a function of relative expression of WASp in relation to control.
Background: In western blotting, separated proteins are transferred to a membrane and probed.

Data set [2] relates to WASp. Description: WASp gene silencing by siRNA in T cell leukemic cells, Western blot. It is filed as cell-based. As for the experimental part:
As shown in the previous examples, WASp is overexpressed in malignant cells. Gene silencing of WASp expression using siRNA was tested. WASp was silenced using commercially available siRNA oligonucleotides. A mixture of the following oligonucleotides, each in the form of double-stranted siRNA duplex with its corresponding sequence at an amount of 500 pico-mole was introduced to 1×10^7 cells:
These experiments were performed in T cell leukemic cells. Silencing efficiency of about 90% was achieved 48 hours after transfection, when compared to non-specific (N.S) siRNA-treated cells.
A number of siRNA duplexes were tested in cells as in example 1E. The following double-stranded siRNA sequences were used: SEQ ID NO. 1 and its complementary sequence; SEQ ID NO. 2 and its complementary sequence; SEQ ID NO. 3 and its complementary sequence; SEQ ID NO. […] and its complementary sequence (designated as 1-4). 500 picomole of each double-stranded siRNA was used. In addition, a nonsense siRNA sequence (designated as “N.S. siRNA”) was used as a control. Control N.S. siRNA was made from 125 duplexes of each of the siRNA molecules in Table 5:
In addition, a mixture of the siRNAs comprising SEQ ID NOS. 1-4 (designated as “Mix”) was also used, comprising 125 picomole of each. Upon analysis with Western blot, it was shown that all siRNA duplexes were effective in downregulating WASp, with the siRNA of SEQ. ID NO.

As for `COCC1CCN(c2ccc(C(=O)N3CCC(N4CCOCC4)CC3)cn2)C1` (centres unmarked) [Compound 4, 4-[1-({6-[3-(methoxymethyl)pyrrolidin-1-yl]pyridin-3-yl}carbonyl)piperi-din-4-yl]morpholine], on WASp [1], the “effect on WASp expression in cells” value was “increase WASp expression” and the Relative expression turned out to be 1.5.

Regarding `CC(=O)N[C@H]1C[C@@H](c2ccc3c(c2)nnn3C)O[C@@H](c2ccc(Cl)cc2)C1` [Compound 6, N-[(2R,4R,6S)-2-(4-chloro-phenyl)-6-(1-methyl-1H-1,2,3-benzotriazol-5-yl)tetrahydro-2H-pyran-4-yl]acetamide], on WASp [1], the “effect on WASp expression in cells” value is recorded as “increase WASp expression” and the Relative expression is listed as 6.7.

As to `Cc1cc(C)n(C2CCN(C(=O)c3cc(COc4ccccc4)[nH]n3)C2)n1` (centres unmarked) [Compound 7, 3,5-dimethyl-1-(1-{[5-(phenoxy-methyl)-1H-pyrazol-3-yl]carbonyl}pyrrolidin-3-yl)-1H-pyrazole], on WASp [1], the “effect on WASp expression in cells” value was “increase WASp expression” and the Relative expression is given as 2.1.

In the case of `CC(C)c1n[nH]c2c1CN(C(=O)c1cccc(C#CC(C)(C)O)c1)CC2` [Compound 10, 4-{3-[(3-isopropyl-1,4,6,7-tetrahydro-5H-pyrazolo[4,3-c]pyridin-5-yl)carbonyl]phenyl}-2-methylbut-3-yn-2-ol], at WASp [1], the “effect on WASp expression in cells” value is reported as “effective in decreasing WASp expression” and the Relative expression was 0.6.

`COc1ccc(CN2C(=O)N(CC(C)C)C3(CCN(C4Cc5ccccc5C4)CC3)C2=O)cc1` [Compound 13, 8-(2,3-dihydro-1H-inden-2-yl)-1-isobutyl-3-(4-methoxy-benzyl)-1,3,8-triazaspiro[4.5] decane-2,4-dione]: at WASp [1], the “effect on WASp expression in cells” value was “effective in decreasing WASp expression” and the Relative expression is 0.3.

On to `COc1ccccc1-c1cccc(C(=O)NC(C)Cc2ccccn2)c1` (centres unmarked) [Compound 14, 2′-methoxy-N-(1-methyl-2-pyridin-2-ylethyl)biphenyl-3-carboxamide], for which, at WASp [1], the “effect on WASp expression in cells” value was “effective in decreasing WASp expression” and the Relative expression is on record as 0.5.

B1: Mix: mixture of the double-stranded siRNA duplexes of SEQ ID NOS. 1-4 (nucleic acid)
chain 1: UGACUGAGUGGCUGAGUUA
chain 2: GACCUAGCCCAGCUGAUAA
chain 3: GAAUGGAUUUGACGUGAAC
chain 4: GCCGAGACCUCUAAACUUA
modifications: listed as RNA, chemistry not given here
With B1, the Silencing efficiency entry in the data set with WASp [2] (48 hours after transfection, T cell leukemic cells, 500 pico-mole to 1×10^7 cells, compared to non-specific (N.S) siRNA-treated cells) is given as “about 90%”.

B2: N.S. siRNA: nonsense siRNA control made from duplexes of SEQ ID NO. 9-12 (Table 5) (nucleic acid)
chain 1: UAGCGACUAAACACAUCAAUAGGCUAUGAAGAGAUAC
chain 2: AUGUAUUGGCCUGUAUUAG
chain 3: AUGAACGUGAAUUGCUCAA
chain 4: UGGUUUACAUGUCGACUAA
modifications: listed as RNA, chemistry not given here
Take B2: in the data set on WASp [2] (Western blot, 500 picomole double-stranded siRNA, cells as in example 1E, FIG. 2), the “downregulating WASp” value is reported as “ineffective in downregulating WASp”.
